Data reported in patent US6365621B1, “Remedies or preventives for intractable epilepsy” (Pharmaceutical Co., Ltd., priority 1998, dated 2002).
“And” between values parts separate entries of the source, which are not always exact repeats. Identical values can stand only once.

What was measured:
[1] = system: amygdala kindling development in rats; assay: Development/establishment of amygdala kindling under daily dosing; type: in vivo, rat
Description: The present inventors have studied the effects of nefiracetam on an development process of the amygdaloid kindled seizures and on establishment of kindling through a method described below, and have determined the efficacy of nefiracetam. The evolution process of kindling is tested by use of rats, in which electrodes are placed in the amygdala and kindling stimulation (50 Hz sine wave, duration of 1 second, once per day) is applied at specific intervals for restoration. On the first day, an afterdischarge-provocation threshold is determined without administration of a pharmaceutical. From the second day, kindling stimulation having intensity of the afterdischarge-provocative threshold is applied to rats administered with a specimen at a variety of administration doses, to thereby investigate an effect of the specimen on the evolution process of kindling.
In this test, the following parameters were evaluated: seizure stage in the process of development of amygdala kindling and afterdischarge duration at the stimulated amygdala.
[Method] Male Wistar rats (5 to 6 weeks old, weight: 200-250 g, Tokyo Jikken Dobutsu) were used. For each rat, in a manner similar to that in Example 1, there were performed anesthetization, setting of an electrode on the amygdala, and fixation of the electrode at the cranial bone. After a recovery period of at least two weeks, kindling stimulation was initiated.
Kindling stimulation was performed for one second per day with a sine wave of 50 Hz. On the first day, the afterdischarge threshold was determined, and from the second day, kindling stimulation was performed at the intensity of the threshold. On the first day, nefiracetam was not administered, in order to determine the threshold. For twenty days from the second day, a dose of nefiracetam (45, 90, or 180 mg/kg) was administered orally, and then kindling stimulation was performed 90 minutes after administration. After nefiracetam was administered for twenty days, kindling stimulation was performed without administration for an additional seven days.

[2] = system: kainate-induced cortical focal seizures; assay: Kainate-induced cortical focal seizures: behavior and electroencephalogram; type: in vivo, rat; details: 100 mg/kg i.v. On Decrease of Spikes: key: (+): effective; (−): ineffective. On Sedative action: key: (+): effective; (−): ineffective. On Spikes after 24 hours: key: (+): effective; (−): ineffective.
Description: [Method for measuring an electrophysiological effect] A stereotaxic operation was performed through the same manner as described in I-1 by use of Wistar male rats. A cannula was inserted in the left sensorimotor area for injection of kainic acid, and the cannula was simultaneously used as an electrode. A bipolar depth electrode was set in the bilateral caudatum, and screw electrodes were set in the right sensorimotor area, frontal sinus, and occipital bone. Seven days after operation, 1 μL of kainic acid solution (2 mg/mL) was injected so as to induce cortical focal seizures. After elapse of 1-2 hours from the injection of kainic acid, the same nefiracetam solution as described in I-1 (100 mg/kg) was intravenously injected, and behavior and electroencephalograms were recorded by use of a video electroencephalogram recorder. Suppression of seizures just after the administration of nefiracetam, changes in electroencephalograms, occurrence of seizures thereafter, and electroencephalogram observations were compared with those of the control group.

[3] = Test 1, 90 mg/kg p.o. daily for twenty days
[4] = Test 2, 45 mg/kg p.o. daily for twenty days
[5] = Test 2, 180 mg/kg p.o. daily for twenty days

Cc1cccc(C)c1NC(=O)CN1CCCC1=O [nefiracetam, N-(2,6-dimethylphenyl)-2-(2-oxo-1-pyrrolidinyl)acetamide]
Day on which stage 5 was reached ([1]; 90 mg/kg, typical rat (control: ninth day)): tenth day
Day on which seizure stage began to progress ([1]; 90 mg/kg, typical rat (control: third day)): sixth day
Number of stimulations until the completion of stage 5 versus control rats ([1]; 45, 90 or 180 mg/kg p.o. daily): no difference was observed
Number of samples showing an increase in afterdischarge threshold/total samples [1, 3]: 3/6
Number of samples showing stage 5 intermittently/total samples [1, 3]: 4/6
Number of samples showing an increase in afterdischarge threshold/total samples [1, 4]: 0/4
Number of samples showing stage 5 intermittently/total samples [1, 4]: 0/4
Number of samples showing an increase in afterdischarge threshold/total samples [1, 5]: 2/6
Number of samples showing stage 5 intermittently/total samples [1, 5]: 5/6
Stimulation intensity at which afterdischarge was shown ([1]; one nefiracetam-administered rat, eleventh day): 150 μA
Seizure stage ([1]; one nefiracetam-administered rat, eleventh day, 150 μA): 4
Seizures after awakening [2]: seizures did not appear after awakening
Seizures after intravenous injection during status epilepticus [2]: the seizures disappeared immediately
Time to awakening from sedation [2]: ≤ 60 min
Decrease of Spikes ([2]; individual rats): +
Disappear of seizures ([2]; individual rats): +
Reappear of seizures ([2]; individual rats): −
Sedative action ([2]; individual rats): +
Spikes after 24 hours ([2]; individual rats): − and + (2×)
